Laboratory results published in ChEMBL document CHEMBL1150520, “Analogs of UK 14,304: Structural features responsible for 2 adrenoceptor activity” (Bioorg Med Chem Lett, 1995).

Experiments:
[1] = molecular target: T1, Adrenergic receptor alpha-1 (Homo sapiens, UniProt P35348+P25100+P35368); assay: Binding affinity for Alpha-1 adrenergic receptor of human cerebral cortex membrane; assay type: tissue-based
T1 sequence (P35348 whole entry): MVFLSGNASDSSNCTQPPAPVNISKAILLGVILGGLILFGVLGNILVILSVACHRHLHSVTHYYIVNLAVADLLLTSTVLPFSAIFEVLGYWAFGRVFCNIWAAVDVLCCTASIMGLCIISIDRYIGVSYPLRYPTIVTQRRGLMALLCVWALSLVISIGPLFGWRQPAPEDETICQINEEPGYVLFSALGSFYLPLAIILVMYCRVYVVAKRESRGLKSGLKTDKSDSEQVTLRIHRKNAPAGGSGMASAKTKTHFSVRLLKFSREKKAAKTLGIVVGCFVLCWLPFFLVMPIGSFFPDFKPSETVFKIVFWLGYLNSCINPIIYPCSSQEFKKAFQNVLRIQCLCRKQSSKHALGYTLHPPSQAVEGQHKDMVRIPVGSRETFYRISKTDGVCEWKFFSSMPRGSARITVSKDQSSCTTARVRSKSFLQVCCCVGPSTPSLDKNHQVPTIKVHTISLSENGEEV
T1 sequence (P25100 whole entry): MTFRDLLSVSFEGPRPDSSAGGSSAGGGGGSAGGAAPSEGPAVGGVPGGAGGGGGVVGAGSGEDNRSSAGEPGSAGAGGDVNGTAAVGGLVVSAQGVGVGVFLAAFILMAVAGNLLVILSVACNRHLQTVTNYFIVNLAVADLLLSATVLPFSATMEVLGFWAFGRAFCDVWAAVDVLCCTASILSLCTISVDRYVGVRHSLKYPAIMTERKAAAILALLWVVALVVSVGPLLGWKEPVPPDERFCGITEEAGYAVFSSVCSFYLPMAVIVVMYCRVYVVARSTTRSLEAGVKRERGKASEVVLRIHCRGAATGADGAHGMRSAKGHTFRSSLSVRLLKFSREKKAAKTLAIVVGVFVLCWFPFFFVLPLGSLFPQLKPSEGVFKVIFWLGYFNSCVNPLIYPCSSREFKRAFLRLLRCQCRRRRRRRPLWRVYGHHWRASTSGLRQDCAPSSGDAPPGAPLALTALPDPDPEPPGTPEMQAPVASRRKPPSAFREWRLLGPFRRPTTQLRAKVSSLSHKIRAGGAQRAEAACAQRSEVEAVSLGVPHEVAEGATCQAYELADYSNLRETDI
T1 sequence (P35368 whole entry): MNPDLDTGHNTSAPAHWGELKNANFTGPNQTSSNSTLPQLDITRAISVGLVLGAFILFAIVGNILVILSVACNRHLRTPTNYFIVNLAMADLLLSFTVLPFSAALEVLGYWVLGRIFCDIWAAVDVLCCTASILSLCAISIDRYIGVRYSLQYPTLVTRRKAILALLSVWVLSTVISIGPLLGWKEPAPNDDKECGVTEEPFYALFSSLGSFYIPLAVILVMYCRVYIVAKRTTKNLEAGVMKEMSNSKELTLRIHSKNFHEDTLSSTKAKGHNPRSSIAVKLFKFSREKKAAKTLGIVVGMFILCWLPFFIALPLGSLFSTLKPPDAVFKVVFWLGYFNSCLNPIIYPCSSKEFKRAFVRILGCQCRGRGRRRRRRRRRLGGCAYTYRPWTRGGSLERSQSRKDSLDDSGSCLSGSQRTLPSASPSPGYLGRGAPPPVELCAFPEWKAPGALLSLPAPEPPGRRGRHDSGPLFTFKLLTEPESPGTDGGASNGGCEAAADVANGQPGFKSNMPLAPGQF

[2] = molecular target: T2, Adrenergic receptor alpha-2 (Homo sapiens, UniProt P08913+P18825+P18089); assay: Binding affinity for Alpha-2 adrenergic receptor of CHO-C10 membrane preparation; set-up: species or system Cricetulus griseus
T2 sequence (P08913 whole entry): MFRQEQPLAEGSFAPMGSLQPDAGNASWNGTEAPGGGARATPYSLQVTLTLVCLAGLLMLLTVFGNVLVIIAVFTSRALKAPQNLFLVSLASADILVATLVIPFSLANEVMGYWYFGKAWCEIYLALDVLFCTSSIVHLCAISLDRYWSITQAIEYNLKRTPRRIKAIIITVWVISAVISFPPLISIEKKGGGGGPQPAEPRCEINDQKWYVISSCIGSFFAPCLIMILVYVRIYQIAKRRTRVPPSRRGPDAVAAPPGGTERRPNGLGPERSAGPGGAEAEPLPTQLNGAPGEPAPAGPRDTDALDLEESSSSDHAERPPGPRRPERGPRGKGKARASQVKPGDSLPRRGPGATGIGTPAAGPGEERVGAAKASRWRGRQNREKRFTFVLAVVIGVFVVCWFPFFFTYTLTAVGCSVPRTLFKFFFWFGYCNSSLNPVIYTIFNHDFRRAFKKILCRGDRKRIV
T2 sequence (P18825 whole entry): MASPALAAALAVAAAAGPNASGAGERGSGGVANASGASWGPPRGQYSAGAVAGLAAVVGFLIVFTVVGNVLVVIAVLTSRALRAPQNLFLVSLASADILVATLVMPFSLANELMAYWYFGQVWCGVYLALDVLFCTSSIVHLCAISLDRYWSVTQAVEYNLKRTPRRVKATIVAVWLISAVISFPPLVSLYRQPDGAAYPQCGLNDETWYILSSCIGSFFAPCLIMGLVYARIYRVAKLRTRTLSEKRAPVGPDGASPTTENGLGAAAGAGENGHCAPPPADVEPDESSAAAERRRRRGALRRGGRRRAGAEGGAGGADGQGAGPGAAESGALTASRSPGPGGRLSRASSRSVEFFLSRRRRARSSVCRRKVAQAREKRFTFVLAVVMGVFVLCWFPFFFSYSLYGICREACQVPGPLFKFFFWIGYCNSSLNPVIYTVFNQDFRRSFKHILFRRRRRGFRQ
T2 sequence (P18089 whole entry): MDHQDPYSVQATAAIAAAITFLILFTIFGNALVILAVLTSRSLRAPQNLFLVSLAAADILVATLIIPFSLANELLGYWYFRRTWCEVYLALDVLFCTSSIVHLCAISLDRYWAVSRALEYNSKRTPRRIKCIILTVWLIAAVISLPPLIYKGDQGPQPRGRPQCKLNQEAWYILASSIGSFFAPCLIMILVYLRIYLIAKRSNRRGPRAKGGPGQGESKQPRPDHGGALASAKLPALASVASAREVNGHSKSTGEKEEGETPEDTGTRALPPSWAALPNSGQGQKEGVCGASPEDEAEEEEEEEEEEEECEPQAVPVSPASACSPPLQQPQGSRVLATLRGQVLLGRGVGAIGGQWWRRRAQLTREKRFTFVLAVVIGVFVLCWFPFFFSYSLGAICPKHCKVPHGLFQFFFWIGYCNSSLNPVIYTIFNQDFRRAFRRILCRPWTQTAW

## CN(C1=NCCN1)c1ccc2c(c1)OCCO2
[1]
  Ki: 30000 nM
[2]
  Ki: 180 nM

## Cc1c(NC2=NCCN2)ccc2c1NCCO2
[2]
  Ki: 1.2 nM

## C/N=C(\NC)Nc1ccc2nccnc2c1Br
[1]
  Ki: 10000 nM
[2]
  Ki: 5300 nM

## c1cc2c(cc1NC1=NCCN1)OCCO2
[1]
  Ki: 2400 nM

## Cc1c(NC2=NCCN2)ccc2c1NCCN2
[1]
  Ki: 8900 nM
[2]
  Ki: 9.6 nM

## c1cnc2cc(NC3=NCCN3)ccc2n1
[2]
  Ki: 41 nM

## Cc1c(NC2=NCCN2)ccc2c1OCCO2
[1]
  Ki: 130 nM
[2]
  Ki: 0.25 nM

## Cc1ccccc1N=C1NCCN1
[1]
  Ki: 2500 nM
[2]
  Ki: 7.8 nM

## COc1ccc(NC2=NCCN2)c(C)c1OC
[1]
  Ki: 1500 nM
[2]
  Ki: 5.2 nM

## N=C(N)Nc1ccc2nccnc2c1Br
[1]
  Ki: 17000 nM
[2]
  Ki: 41 nM
